According to patent US6548494B1, “Tricyclic inhibitors of poly(ADP-ribose) polymerases” (Agouron Pharmaceuticals, Inc., priority 1999, dated 2003):
Where “and” joins values, the source holds several entries; their conditions need not be identical. Identical values can stand only once. Like-named read-outs stand apart in the source and are kept apart here.

What was measured:
[1] = target: purified PARP protein (Homo sapiens, UniProt P09874); test: PARP enzyme inhibition assay; assay type: biochemical
[2] = system: A549 cells; test: Cytotoxicity potentiation assay; assay type: cell-based; conditions: test compound 0.4 μM, ratio of IC50 of topotecan alone to IC50 of topotecan with test compound
Procedure: A549 cells (ATCC, Rockville, Md.) were seeded into 96-well cell culture plates (Falcon brand, Fisher Scientific, Pittsburgh, Pa.) 16 to 24 hours before experimental manipulation. Cells were then treated with a test compound (or a combination of test compounds where indicated) each at a concentration of 0.4 μM for either 3 days or 5 days. At the end of treatments, relative cell number was determined either by MTT assay or SRB assay. For the MTT assay, 0.2 μg/μl of MTT (3-(4,5-dimethylthiazol-2-yl)-2,5-diphenyltetrazolium bromide) (Sigma Chemical Co., St. Louis, Mo.) was added to each well of a plate, and the plate was incubated in a cell-culture incubator for 4 hours. Metabolized MTT in each well was solubilized in 150 μl of DMSO (Sigma Chemical Co.) with shaking and quantified with a Wallac 1420 Victor plate reader (EG&G Wallac, Gaithersburg, Md.) at 540 nm. For the SRB assay, cells were fixed with 10% trichloroacetic acid (Sigma Chemical Co) for an hour at 4° C. After extensively washing, fixed cells were stained for 30 minutes with 0.4% sulforhodamine B (SRB, Sigma Chemical Co.) in 1% acetic acid (Sigma Chemical Co). Unbound SRB was washed away with 1% acetic acid. Then the cultures were air-dried, and dye was solubilized with 10 mM unbuffered Tris base (Sigma Chemical Co) with shaking. The bound dye was measured photometrically with the Wallac Victor plate reader at 515 nm. The ratio of the OD (optical density) value of a compound-treated culture to the OD value of a mock-treated culture, expressed in percentage, was used to quantify the cytotoxicity of a compound. […] To quantify the potentiation of the cytotoxicity of topotecan or temozolomide by test compounds, a dimensionless parameter PF50 is used and is defined as the ratio of the IC50 of topotecan or temozolomide alone to the IC50 of topotecan or temozolomide in combination with a test compound. For the compounds of the invention, PF50 values were determined by testing with topotecan.

[3] = 20 nM purified PARP (5 nM for tight-binding inhibitors), 500 μM NAD+, 25° C., several values in one cell = repeat determinations, read-out: Inhibition Constant Ki

Sequence of purified PARP protein (P09874 whole entry): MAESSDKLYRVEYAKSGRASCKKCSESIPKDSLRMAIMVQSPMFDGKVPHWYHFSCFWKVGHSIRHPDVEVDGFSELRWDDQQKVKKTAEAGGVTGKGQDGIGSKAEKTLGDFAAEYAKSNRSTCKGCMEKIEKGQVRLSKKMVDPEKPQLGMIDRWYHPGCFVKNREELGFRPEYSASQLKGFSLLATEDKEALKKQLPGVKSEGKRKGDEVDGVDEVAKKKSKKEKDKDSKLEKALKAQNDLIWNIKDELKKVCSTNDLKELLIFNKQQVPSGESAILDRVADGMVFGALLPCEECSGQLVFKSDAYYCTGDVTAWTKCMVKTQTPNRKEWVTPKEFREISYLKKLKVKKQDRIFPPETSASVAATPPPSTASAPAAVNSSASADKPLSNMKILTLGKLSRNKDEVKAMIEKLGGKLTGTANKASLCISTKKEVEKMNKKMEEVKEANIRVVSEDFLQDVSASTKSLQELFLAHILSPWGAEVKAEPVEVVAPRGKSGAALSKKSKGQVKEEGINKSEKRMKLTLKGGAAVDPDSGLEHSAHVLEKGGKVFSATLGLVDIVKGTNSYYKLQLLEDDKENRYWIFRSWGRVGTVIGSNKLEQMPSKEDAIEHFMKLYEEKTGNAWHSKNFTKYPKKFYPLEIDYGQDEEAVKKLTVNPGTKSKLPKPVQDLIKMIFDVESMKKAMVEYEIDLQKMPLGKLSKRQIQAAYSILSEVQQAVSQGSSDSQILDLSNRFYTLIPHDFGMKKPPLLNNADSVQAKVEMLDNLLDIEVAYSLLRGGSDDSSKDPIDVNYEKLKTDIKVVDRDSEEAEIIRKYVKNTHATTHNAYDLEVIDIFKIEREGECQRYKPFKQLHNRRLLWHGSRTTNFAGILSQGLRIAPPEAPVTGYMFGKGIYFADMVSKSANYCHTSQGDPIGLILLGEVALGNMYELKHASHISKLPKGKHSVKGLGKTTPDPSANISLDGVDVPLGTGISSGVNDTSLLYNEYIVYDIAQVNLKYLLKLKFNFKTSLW

Structure (SMILES) | Ki [1, 3] | Cytotoxicity Potentiation PF50 [2] | melting point | Ki ([1]; Inhibition Constant Ki (nM)) [nM]
CN(C)Cc1ccc(-c2cc3cccc4c3n2CCNC4=O)cc1 [Example 82, 6-(4-Dimethylaminomethyl-phenyl)-3,4-dihydro-2H-[1,4]diazepino[6,7,1-hi]indol-1-one] | 6.2 nM and 6.6 nM | 1.9 | – | –
O=C1NCCn2c(-c3ccc4ccccc4c3)nc3cccc1c32 [Example 11, 1-Naphthalen-2-yl-8,9-dihydro-7H-2,7,9a-triaza-benzo[cd]azulen-6-one] | 5.6 nM | 2.1 | – | –
Cc1c(-c2ccc(F)cc2)n2c3c(cccc13)C(=O)NCC2 [Example 50, 6-(4-Fluoro-phenyl)-7-methyl-3,4-dihydro-2H-[1,4]diazepino[6,7,1-hi]indol-1-one] | – | 1.1 | – | –
CCN(CCc1ccccn1)Cc1ccc(-c2nc3cccc4c3n2CCNC4=O)cc1 [Example 203, 1-(4-{[Ethyl-(2-pyridin-2-yl-ethyl)-amino]-methyl}-phenyl)-8,9-dihydro-7H-2,7,9a-triaza-benzo[cd]azulen-6-one] | 4.6 nM | 2.0 | – | –
O=C1NCCn2c(-c3ccc(CN4CC=CC4)cc3)nc3cccc1c32 [Example 171, 1-[4-(2,5-Dihydro-pyrrol-1-ylmethyl)-phenyl]-8,9-dihydro-7H-2,7,9a-triaza-benzo[cd]azulen-6-one] | 4.5 nM | 2.5 | – | –
CC(c1ccc(-c2nc3cccc4c3n2CCNC4=O)cc1)N1CCCC1 (stereo not shown) [Example 246, 1-[4-(1-Pyrrolidin-1-yl-ethyl)-phenyl]-8,9-dihydro-7H-2,7,9a-triaza-benzo[cd]azulen-6-one] | 3.3 nM | 2.3 | – | –
O=C1NCCn2c(-c3ccc(CN4CC=CC4)cc3)nc3cc(F)cc1c32 [Example 177, 1-[4-(2,5-Dihydro-pyrrol-1-ylmethyl)-phenyl]-4-fluoro-8,9-dihydro-7H-2,7,9a-triaza-benzo[cd]azulen-6-one] | 4.1 nM | 2.5 | – | –
O=C1NCCn2c(-c3cccc4ccccc34)nc3cccc1c32 [Example 9, 1-Naphthalen-1-yl-8,9-dihydro-7H-2,7,9a-triaza-benzo[cd]azulen-6-one] | – | 1.4 | – | –
O=C1NCCn2c(-c3ccc(F)cc3)cc3cccc1c32 [Example 37] | – | 1.8 | – | –
O=C1NCCn2c(-c3ccc(F)cc3)c(/C=N/O)c3cccc1c32 [Example 90, 6-(4-Fluoro-phenyl)-1-oxo-1,2,3,4-tetrahydro-[1,4]diazepino[6,7,1-hi]indole-7-carbaldehyde oxime] | – | 1.2 | – | –
O=C1NCCn2cc(/C=N/O)c3cccc1c32 [Example 46, 1-Oxo-1,2,3,4-tetrahydro-[1,4]diazepino[6,7]-hi]indole-7-carbaldehyde Oxime] | – | 1.3 | – | –
O=C1NCCn2c(-c3ccc(Cl)cc3)c(/C=N/O)c3cccc1c32 [Example 39, 6-(4-Chloro-phenyl)-1-oxo-1,2,3,4-tetrahydro-[1,4]diazepino[6,7,1-hi]indole-7-carboxaldehyde Oxime] | – | 1 | – | –
O=C1NCCn2c(-c3cccc(Oc4cc(Cl)cc(Cl)c4)c3)nc3cccc1c32 [Example 65, 1-[3-(3,5-Dichlorophenoxy)-phenyl]-8,9-dihydro-7H-2,7,9a-triaza-benzo[cd]azulen-6-one] | 11 nM | – | 258 to 259 °C (dec.) | –
O=C1NCCn2c(-c3ccc(F)cc3)c(-c3ccn[nH]3)c3cccc1c32 [Example 160, 6-(4-Fluoro-phenyl)-7-(2H-pyrazol-3-yl)-3,4-dihydro-2H-[1,4]diazepino[6,7,1-hi]indol-1-one] | – | – | 173 to 175 °C | 249
O=C1NCCn2c(-c3ccccc3)nc3cccc1c32 [Example 1, 1-Phenyl-8,9-dihydro-7H-2,7,9a-triaza-benzo[cd]azulen-6-one] | – | 1.5 | – | –
O=C1NCCn2c(C(F)(F)F)nc3cccc1c32 [Example 112, 1-Trifluoromethyl-8,9-dihydro-7H-2,7,9a-triaza-benzo[cd]azulen-6-one] | 18 nM | – | 277 to 281 °C (dec.) | –
O=C1NCCn2c(-c3ccccn3)cc3cccc1c32 [Example 40, 6-Pyridin-2-yl-3,4-dihydro-2H-[1,4]diazepino[6,7,1-hi]indol-1-one] | 68 nM | – | 173 to 175 °C | –

Structure (SMILES) | Ki [1, 3] | Cytotoxicity Potentiation PF50 [2] | melting point | Ki ([1]; Inhibition Constant Ki (nM)) [nM]
O=C1NCCn2c(-c3cccc(C4OCCO4)c3)nc3cccc1c32 [Example 55, (3-[1,3]Dioxolan-2-yl-phenyl)-8,9-dihydro-7H-2,7,9a-triaza-benzo[cd]azulen-6-one] | 10 nM | – | 223 to 225 °C | –
O=C1NCCn2c(-c3ccc(CCO)cc3)nc3cccc1c32 [Example 127, 1-[4-(2-Hydroxy-ethyl)-phenyl]-8,9-dihydro-7H-2,7,9a-triaza-benzo[cd]azulen-6-one] | 3.5 nM and 3.6 nM | – | 263 to 265 °C | –
N#Cc1ccc(Oc2ccc(-c3nc4cccc5c4n3CCNC5=O)cn2)cc1 [Example 109, 4-[5-(6-Oxo-6,7,8,9-tetrahydro-2,7,9a-triaza-benzo[cd]azulen-1-yl)-pyridin-2-yloxy]-benzonitrile] | 5.5 nM | – | 281 to 288 °C (dec.) | –
CC(C)N1CCCCC1c1ccc(-c2nc3cccc4c3n2CCNC4=O)cc1 (stereo not shown) [Example 151] | 6.9 nM | – | > 260 °C (dec.) | –
CC(=O)c1cn2c3c(cccc13)C(=O)NCC2 [Example 164, 7-Acetyl-3,4-dihydro-2H-[1,4]diazepino[6,7,1-hi]indol-1-one] | 606 nM | – | 285 to 287 °C | –
CSc1nc2cccc3c2n1CCNC3=O [Example 138, 1-Methylsulfanyl-8,9-dihydro-7H-2,7,9a-triaza-benzo[cd]azulen-6-one] | 11 nM | – | 223 to 225 °C | –
O=C1NCCn2c(-c3ccc(Cl)nc3)nc3cccc1c32 [Example 118, 1-(6-Chloro-pyridin-3-yl)-8,9-dihydro-7H-2,7,9a-triaza-benzo[cd]azulen-6-one] | 4.4 nM | – | > 280 °C (dec.) | –
CN1CCCC(c2ccc(-c3nc4cccc5c4n3CCNC5=O)cc2)C1 (stereo not shown) [Example 144, 1-[4-(Methyl-piperidin-3-yl)-phenyl]-8,9-dihydro-7H-2,7,9a-triaza-benzo[cd]azulen-6-one] | 7.4 nM | – | 240 to 242 °C | –
O=C1NCCn2c(-c3ccc(Oc4ccccc4)cc3)nc3cccc1c32 [Example 78, 1-(4-Phenoxyphenyl)-8,9-dihydro-7H-2,7,9a-triaza-benzo[cd]azulen-6-one] | 5.2 nM | – | 259 to 264 °C | –
O=C1NCCn2c(-c3nccs3)nc3cccc1c32 [Example 94, 1-(Thiazol-2-yl)-8,9-dihydro-7H-2,7,9a-triaza-benzo[cd]azulen-6-one] | 4.3 nM | – | 271 to 276 °C | –
O=C1NCCn2c(-c3ccc(OCCO)cc3)nc3cccc1c32 [Example 120, 1-[4-(2-Hydroxy-ethoxy)-phenyl]-8,9-dihydro-7H-2,7,9a-triaza-benzo[cd]azulen-6-one] | 7.3 nM | – | 253 to 254 °C (dec.) | –
Cc1ccc(-c2onc3ccc(-c4nc5cccc6c5n4CCNC6=O)cc23)cc1 [Example 107, 1-(3-p-Tolyl-benzo[c]isoxazol-5-yl)-8,9-dihydro-7H-2,7,9a-triaza-benzo[cd]azulen-6-one] | 25 nM | – | 297 to 301 °C (dec.) | –
O=C1NCCn2c(-c3ccc(CN4CCSCC4)cc3)nc3cccc1c32 [Example 105, 1-(4-Thiomorpholin-4-ylmethyl-phenyl)-8,9-dihydro-7H-2,7,9a-triaza-benzo[cd]azulen-6-one] | 6.2 nM | – | 266 °C (dec.) | –
COc1ccc(Oc2cccc(-c3nc4cccc5c4n3CCNC5=O)c2)cc1 [Example 64, 1-[3-(4-Methoxyphenoxy)-phenyl]-8,9-dihydro-7H-2,7,9a-triaza-benzo[cd]azulen-6-one] | 6.2 nM | – | 196 to 198 °C | –
COc1ccc(-c2cc3cccc4c3n2CCNC4=O)cc1 [Example 35, 6-(4-Methoxyphenyl)-3,4-dihydro-2H-[1,4]diazepino[6,7,1-hi]indol-1-one] | 8.2 nM | – | 193 to 195 °C | –
CCOC(OCC)c1ccc(-c2nc3cccc4c3n2CCNC4=O)cc1 [Example 56, 1-(4-Diethoxymethyl-phenyl)-8,9-dihydro-7H-2,7,9a-triaza-benzo[cd]azulen-6-one] | 32 nM | – | 213 to 215 °C | –
O=C1NCCn2c(CCc3ccccc3)cc3cccc1c32 [Example 36, 6-Phenethyl-3,4-dihydro-2H-[-1,4]diazepino[6,7,1-hi]indol-1-one] | – | – | 133 to 135 °C | 27
